Where “and” joins values, the source holds several entries; their conditions need not be identical. Identical values can stand only once.
Assays:
Fmr1 KO mice [1] = assay: Memory and learning: Novel Object Recognition (NOR); format: in vivo; parameters: unit not given here; conditions: for NOR: Mean Diff., F_KO-V vs. F_ treated KO (Dunnett) / NOR: Mean 2 (mean of F_ treated KO group): F_ values; for NOR: Mean Diff., F_KO-V vs. F_ treated KO (Dunnett) / NOR: Mean Diff., F_KO-V vs. N_ treated KO (Dunnett): against F_KO-V; for NOR: Mean Diff., F_KO-V vs. F_ treated KO (Dunnett): Sumatriptan 20, Oxitriptan 40, Ergoloid 4, Ergoloid 2 + Oxitriptan 40 mg/kg; for Novel Object Recognition, F_KO / Novel Object Recognition, N_KO: individual animal values
Procedure: (§1) Fmr1 KO mice backcrossed to the FVB strain and WT littermates were used during experiments. TransnetXY Automated Genotyping (www.transnetyx.com/). TRANSNETYX, INC., 8110 Cordova Rd. Suite 119, Cordova, TN 38016, USA was used for genotyping. The animals were pretreated for 14 days. The active ingredients of Sumatriptan and Ergoloid were in a water carrier, whereas oxitriptan was in a methanol carrier.
(§2) The mice were housed in plastic cages (35×30×12 cm), 5 in each. The room temperature (21±2° C.),relative humidity (55±5%), a 12-h light-dark cycle (lights on 7 a.m.-7 p.m.) and air exchange (16 times per h) were automatically controlled. The animals had free access to commercial food pellets and water. Testing was conducted during the light phase. Ten mice per treatment group were used for the AGS experiments. Experiments were conducted in line with the requirements of the UK Animals (Scientific Procedures) Act, 1986.
(§3) All experiments were conducted with the experimenter blind to genotype and drug treatment. Separate investigators prepared and coded dosing solutions, allocated the mice to the study treatment groups, dosed the animals, and collected the Audiogenic Seizure data.
(§4) Behavior testing was conducted at 2 weeks. The behavioral tests were as follows: 1. Hyperactivity: Open field; 2. Stereotypy: Self-grooming; 3. Sociability: Three chamber partition test; 4. Memory and Learning: Novel Object Recognition; 5. Anxiety: hyponeophagia; and 6. Test of daily living: marble burying
For memory and learning, a novel object recognition (NOR) task was used to evaluate the rodents' ability to recognize a novel object in the environment. […] The task procedure consists of three phases: habituation, familiarization, and test phase (Antunes 2012).
(§5) The treatment of the mice with OX (Oxitriptan), SU (Sumatriptan), ER (Ergoloid mesylates, also referred to as ergoloid herein) were according to the matrix shown below in Table 1. […]

Fmr1 KO mice [2] = assay: Anxiety: hyponeophagia test; format: in vivo
Procedure: as §1, §2, §3
Behavior testing was conducted at 2 weeks. […]
For anxiety a hyponeophagia test was conducted. […] The amounts ingested then gradually increase until the animal has determined whether the substance is safe and nutritious. […]

Fmr1 KO mice [3] = assay: Open field test (hyperactivity); format: in vivo
Procedure: as §1, §2
All experiments were conducted with the experimenter blind to genotype and drug treatment. Separate investigators prepared and coded dosing solutions, allocated the mice to the study treatment groups, dosed the animals, and collected the Audiogenic Seizure data. […]
For hyperactivity, the open field test (OFT) is a common measure of exploratory behavior and general activity in both mice and rats, where both the quality and quantity of the activity can be measured. […]

Fmr1 KO mice [4] = assay: Sociability: three chamber partition test; format: in vivo; parameters: unit not given here; conditions: for Sociability: Mean Diff., F_KO-V vs. F_ treated KO (Dunnett) / Sociability: Mean Diff., F_KO-V vs. N_ treated KO (Dunnett): against F_KO-V; for Sociability: Mean Diff., F_KO-V vs. F_ treated KO (Dunnett): Sumatriptan 20, Oxitriptan 40, Ergoloid 4, Ergoloid 2 + Oxitriptan 40 mg/kg; for Sociability, F_KO / Sociability, N_KO: individual animal values
Procedure: as §1, §2, §3, §4
For sociability a three chamber partition test was utilized. The three-chamber paradigm test known as Crawley's sociability and preference for social novelty protocol has previously been successfully employed to study social affiliation and social memory in several inbred and mutant mouse lines. The main principle of the test was based on the free choice by a subject mouse to spend time in any of three box's compartments during two experimental sessions, including indirect contact with one or two mice with which it was unfamiliar (Kaidanovich-Beilin 2011).
as §5

Fmr1 KO mice [5] = assay: Stereotypy: self-grooming; format: in vivo; conditions: for Stereotypy: Mean 2 (mean of treated KO group): Table 8, KO-V mean 45.40, WT-V 31.60, doses as E19
Procedure: as §1, §2, §3, §4
For stereotypy, self-grooming was assessed. Self-grooming in animals is an innate behaviour that is involved in hygiene maintenance and other physiologically important processes, including thermoregulation, social communication and de-arousal. It is one of the most frequently observed behaviours in awake rodents and has a patterned, sequential organization with characteristic cephalocaudal progression (Kalueff 2016).
as §5

Fmr1 KO mice [6] = assay: Test of daily living (marble burying / nesting); format: in vivo; parameters: scale not given here; conditions: for Tests of daily living: individual animal values
Procedure: as §1, §2, §3, §4
For test of daily living, nesting was assessed as nest building is an innate behavior in rodents, even when raised in laboratory settings. Synthetic and/or natural materials (such as twine, tissue, cotton, paper, and hay) are provided as a gauge of their overall well-being and as an ancillary assessment to predict the possible decline in cognition. Typically, changes in nesting behaviors, such as failure to create a nest, indicate a change in health or welfare. In addition, nesting behavior is sensitive to many environmental and physiological challenges, as well as many genetic mutations underlying pathological disease states (Gaskill 2013).
(§6) The treatment of the mice with OX (Oxitriptan), SU (Sumatriptan), ER (Ergoloid mesylates, also referred to as ergoloid herein) were according to the matrix shown below in Table 1.
The experimental procedures described above for Example 1 were used in the following tests, as well as the addition of two further behaviour tests as described below. An SSRI (selective serotonin re-uptake inhibitor) was co-dosed with the ergoloid mesylates and oxitriptan to assess the effect of the ergoloid mesylates and oxitriptan treatment on a subject already receiving SSRI treatment.

FMR1 mice = assay: Behavioral experiments overall (FXS phenotypes); format: in vivo
Procedure: as §1, §4, §6
The experimental procedures described above for Example 1 were used in the following tests, as well as the addition of two further behaviour tests as described below. An SSRI (selective serotonin re-uptake inhibitor) was co-dosed with the ergoloid mesylates and oxitriptan to assess the effect of the ergoloid mesylates and oxitriptan treatment on a subject already receiving SSRI treatment. […]

[7] = Jacobsen J P R 2016; cited from earlier work
[8] = N_ values, against N_WT-V, Sumatriptan 20, Oxitriptan 40, Ergoloid 4, Ergoloid 2 + Sumatriptan 10, Ergoloid 2 + Oxitriptan 40 mg/kg
[9] = Table 11, F_KO-V mean 6.600, doses as E28
[10] = against WT-V, Sumatriptan 20, Oxitriptan 40, Ergoloid 4, Ergoloid 2 + Sumatriptan 10, Ergoloid 2 + Oxitriptan 40 mg/kg
[11] = Table 12, N_ values, F_KO-V mean 81.60, doses as E34
[12] = against KO-V, Sumatriptan 20, Oxitriptan 40, Ergoloid 4, Ergoloid 2 + Oxitriptan 40 mg/kg
[13] = Table 4, WT-V mean 4.800, KO-V 1.200, doses as E7
[14] = Table 10, KO-V mean 1.200, doses as E25

CNS(=O)(=O)Cc1ccc2[nH]cc(CCN(C)C)c2c1 [Sumatriptan]
NOR: Mean Diff., F_KO-V vs. F_ treated KO (Dunnett) (Fmr1 KO mice [1]): −0.2000
Novel Object Recognition, F_KO (Fmr1 KO mice [1]; F_KO-Sumatriptan (20 mg/kg)): 9 (2×) and 5 (2×) and 8 (2×) and 7 (2×) and 4 and 6
NOR: Mean Diff., F_KO-V vs. N_ treated KO (Dunnett) (Fmr1 KO mice [1]; N_ values, doses as E28): −0.7000
NOR: Mean Diff., N_WT-V vs. N_ treated KO (Dunnett) (Fmr1 KO mice [1]; [8]): 6.600
Novel Object Recognition, N_KO (Fmr1 KO mice [1]; N_KO-Sumatriptan (20 mg/kg)): 6 (3×) and 8 (2×) and 9 (3×) and 5 and 7
NOR: Mean 2 (mean of N_ treated KO group) (Fmr1 KO mice [1]; Table 5, N_WT-V mean 13.90, N_KO-V 6.700, doses as E10): 7.300
NOR: Mean 2 (mean of F_ treated KO group) (Fmr1 KO mice [1]; [9]): 6.800
NOR: Mean 2 (mean of N_ treated KO group) (Fmr1 KO mice [1]; Table 11, N_ values, F_KO-V mean 6.600, doses as E28): 7.300
Hyponeophagia: Mean Diff., WT-V vs. treated KO (Dunnett) (Fmr1 KO mice [2]; [10]): −9.200
Open Field: Mean Diff., KO-V vs. treated KO (Dunnett) (Fmr1 KO mice [3]; against KO-V, Sumatriptan 20, Oxitriptan 80, Ergoloid 4, Ergoloid 2 + Oxitriptan 40 mg/kg): 846.6
Sociability: Mean Diff., F_KO-V vs. F_ treated KO (Dunnett) (Fmr1 KO mice [4]; F_ values): 19.40
Sociability, F_KO (Fmr1 KO mice [4]; F_KO-Sumatriptan (20 mg/kg)): 61 (2×) and 64 and 65 (2×) and 60 (3×) and 63 (2×)
Sociability: Mean Diff., F_KO-V vs. N_ treated KO (Dunnett) (Fmr1 KO mice [4]; N_ values, doses as E34): −16.60
Sociability: Mean Diff., N_WT-V vs. N_ treated KO (Dunnett) (Fmr1 KO mice [4]; [8]): 0.9000
Sociability, N_KO (Fmr1 KO mice [4]; N_KO-Sumatriptan (20 mg/kg)): 99 and 97 (2×) and 103 and 98 and 90 and 102 and 100 and 95 and 101
Sociability: Mean 2 (mean of N_ treated KO group) (Fmr1 KO mice [4]; Table 6, N_WT-V mean 99.10, N_KO-V 83.90, doses as E13): 98.20
Sociability: Mean 2 (mean of F_ treated KO group) (Fmr1 KO mice [4]; Table 12, F_ values, F_KO-V mean 81.60, doses as E34): 62.20
Sociability: Mean 2 (mean of N_ treated KO group) (Fmr1 KO mice [4]; [11]): 98.20
Stereotypy: Mean 2 (mean of treated KO group) (Fmr1 KO mice [5]): 30.90
Stereotypy: Mean Diff., KO-V vs. treated KO (Dunnett) (Fmr1 KO mice [5]; [12]): 14.50
Tests of daily living (Fmr1 KO mice [6]; KO-Sumatriptan (20 mg/kg)): 5 (7×) and 4 (3×)
Test of daily living: Mean 2 (mean of treated KO group) (Fmr1 KO mice [6]; [13]): 4.700
Test of daily living: Mean 2 (mean of treated KO group) (Fmr1 KO mice [6]; [14]): 4.700
Test of daily living: Mean Diff., KO-V vs. treated KO (Dunnett) (Fmr1 KO mice [6]; [12]): −3.500
Test of daily living: Mean Diff., WT-V vs. treated KO (Dunnett) (Fmr1 KO mice [6]; [10]): 0.1000

N[C@@H](Cc1c[nH]c2ccc(O)cc12)C(=O)O [Oxitriptan, 2-amino-3-(5-hydroxy-1H-indol-3-yl)propanoic acid]
Effect on FXS phenotypes in the behavioral experiments (Example 1) (FMR1 mice): ameliorates the FXS phenotypes
NOR: Mean Diff., F_KO-V vs. F_ treated KO (Dunnett) (Fmr1 KO mice [1]): −0.03636
Novel Object Recognition, F_KO (Fmr1 KO mice [1]; F_KO-Oxitriptan (40 mg/kg)): 6 (4×) and 5 (3×) and 9 (2×) and 8 (2×)
NOR: Mean Diff., F_KO-V vs. N_ treated KO (Dunnett) (Fmr1 KO mice [1]; N_ values, doses as E28): −4.218
Novel Object Recognition, N_KO (Fmr1 KO mice [1]; N_KO-Oxitriptan (40 mg/kg)): 10 (4×) and 12 and 14 and 8 (2×) and 15 and 13 and 9
NOR: Mean 2 (mean of F_ treated KO group) (Fmr1 KO mice [1]; [9]): 6.636
Hyponeophagia (Fmr1 KO mice [2]; KO-Oxitriptan (40 mg/kg), individual animal values): 150 and 140 (2×)
half life [7]: 2 h
Open Field: Mean Diff., WT-V vs. treated KO (Dunnett) (Fmr1 KO mice [3]; against WT-V, 14 days QD, Sumatriptan 20, 5-HTP 80, EM 4, Ergoloid 2 + Sumatriptan 10, Ergoloid 2 + Oxitriptan 40 mg/kg): −512.4
Sociability: Mean Diff., F_KO-V vs. F_ treated KO (Dunnett) (Fmr1 KO mice [4]; F_ values): 29.51
Sociability, F_KO (Fmr1 KO mice [4]; F_KO-Oxitriptan (40 mg/kg)): 51 (2×) and 54 and 52 (2×) and 50 (2×) and 53 (2×) and 55
Sociability: Mean Diff., F_KO-V vs. N_ treated KO (Dunnett) (Fmr1 KO mice [4]; N_ values, doses as E34): −17.20
Sociability, N_KO (Fmr1 KO mice [4]; N_KO-Oxitriptan (40 mg/kg)): 98 (2×) and 97 (2×) and 100 (2×) and 99 (2×) and 96
Sociability: Mean 2 (mean of N_ treated KO group) (Fmr1 KO mice [4]; [11]): 98.80
Stereotypy: Mean 2 (mean of treated KO group) (Fmr1 KO mice [5]): 38.30
Tests of daily living (Fmr1 KO mice [6]; KO-Oxitriptan (40 mg/kg)): 5 (9×) and 4
Test of daily living: Mean 2 (mean of treated KO group) (Fmr1 KO mice [6]; [13]): 4.900
Test of daily living: Mean 2 (mean of treated KO group) (Fmr1 KO mice [6]; [14]): 4.900

— patent publication US20260232633A1, “Compositions and Uses Thereof” (Purposeful IKE, priority 2020, published 2026)
